This note sets out measurements from patent US20110053916A1 (Vertex Pharmaceuticals Incorporated, priority 2009, published 2011).

Counter-ions that a name gives are not always drawn. Like-named read-outs stand apart in the source and are kept apart here.

For assay [1], the system named is Mycobacterium tuberculosis H37Ra. The assay can be described thus: Mycobacterium tuberculosis growth inhibition assay (microtiter dilution, resazurin reduction). The format is cell-based. The following applies: 7H9 broth, 9 days + 24 h resazurin, lowest concentration inhibiting resazurin reduction by >70%, several symbols in a cell = repeat determinations. The method, then:
Compounds were screened for their ability to inhibit the growth of Mycobacterium tuberculosis H37Ra using a standard microtiter dilution method with reduction of the dye resazurin as an indicator of growth. The growth assay was carried out in standard Mycobacterium liquid growth medium, 7H9Broth (BD Biosciences, Franklin Lakes, N.J.) supplemented with 10% ADC enrichment (BD Biosciences, Franklin Lakes, N.J.). The medium was inoculate with ˜1×10^6 cells/milliliter of Mycobacterium tuberculosis H37Ra grown on a the surface of a growth medium solid medium (7H11 agar [BD Biosciences, Franklin Lakes, N.J.] supplemented with 10% OADC enrichment [BD Biosciences, Franklin Lakes, N.J.]).
Two-fold serial dilutions (either 7 or 11-step series) of test compounds in DMSO were dispensed into 96-well assay plates (sterile, black sided, clear bottom wells) in a volume of 1 microliter. One microliter of DMSO was dispensed into a control well at the end of each series. One-hundred microliters of the bacterial cell suspension in growth medium was dispensed into each test well containing a DSMO solution of compound. The assay plates were covered with a fitted lid and incubated at 37° C. in a humidified chamber for 9 days. On the ninth day 30 microliters of a 0.01% solution of resazurin (Sigma Chemical Co., St. Louis, Mo.) in distilled water was added to each well and the baseline fluorescence of resazurin was determined by measuring well fluorescence at an excitation wavelength of 492 nm and an emission wavelength of 595 nm on a Spectrafluor Plus (Tecan, Durham, N.C.) instrument. The assay plates were returned to the incubation chamber for 24 hours. After 24 hours, the fluorescence of the wells (resulting from the reduction of resazurin dye) was measured at an excitation wavelength of 492 nm and an emission wavelength of 595 nm on the Spectrafluor Plus instrument. The minimum inhibitory concentration (MIC) was called as the lowest concentration of compound that inhibited the reduction of resazurin by >70%, as compared to the DMSO (untreated) control wells. MIC values are represented as the following values: • A* <1.6 μM • A 1.6 μM<12.5 μM • B** 12.5 μM-25.0 μM • B* 25.0 μM-50.0 μM • B 50.0 μM-100.0 μM • C >100.0 μM

The target in the next assay is T1, PknB (Mycobacterium tuberculosis, UniProt P9WI81).
T1 construct: made in house
T1 sequence (P9WI81 whole entry): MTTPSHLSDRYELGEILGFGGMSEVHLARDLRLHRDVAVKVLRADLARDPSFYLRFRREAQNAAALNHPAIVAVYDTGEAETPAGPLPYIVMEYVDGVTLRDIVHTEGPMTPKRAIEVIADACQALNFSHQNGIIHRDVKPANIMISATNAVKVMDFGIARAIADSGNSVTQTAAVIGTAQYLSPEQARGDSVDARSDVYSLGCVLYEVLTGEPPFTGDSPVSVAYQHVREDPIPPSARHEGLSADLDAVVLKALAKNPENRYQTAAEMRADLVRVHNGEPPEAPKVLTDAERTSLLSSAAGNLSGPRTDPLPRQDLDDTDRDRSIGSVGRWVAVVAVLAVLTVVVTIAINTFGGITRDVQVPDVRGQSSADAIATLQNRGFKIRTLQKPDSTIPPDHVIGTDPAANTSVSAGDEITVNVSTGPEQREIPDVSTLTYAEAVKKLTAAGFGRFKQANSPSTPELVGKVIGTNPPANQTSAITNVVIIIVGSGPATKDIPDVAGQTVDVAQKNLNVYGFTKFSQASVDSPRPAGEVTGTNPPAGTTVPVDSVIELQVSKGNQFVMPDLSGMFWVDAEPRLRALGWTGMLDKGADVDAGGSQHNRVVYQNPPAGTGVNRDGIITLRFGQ
Put plainly: biochemical. On the set-up: species or system M. tuberculosis. The settings on record: for Ki: read-out: Ki Values.

Where [2] appears, read: 3 nM PknB, 6 uM GarA, 3 μM ATP, 30 min, competitive tight-binding fit, several symbols in a cell = repeat determinations.

In general, Ki refers to the dissociation constant of the complex between target and ligand, obtained from inhibition or displacement.

As for `C#Cc1cnc(-c2ccc(C(C)=O)s2)nc1Nc1cc(C2CC2)[nH]n1` [Compound 111, 1-(5-(4-(5-Cyclopropyl-1H-pyrazol-3-ylamino)-5-ethynylpyrimidin-2-yl)thiophen-2-yl)ethanone], the MIC values entry in assay [1] is “B++, B”. The “Ki Values” at PknB (setting [2]) is “A**, A*”.
`COCCNS(=O)(=O)c1ccc(Nc2nccc(Nc3cc(C4CC4)n[nH]3)n2)cc1` [Compound 112, 4-[[4-[(5-cyclopropyl-2H-pyrazol-3-yl)amino]pyrimidin-2-yl]amino]-N-(2-methoxyethyl)benzenesulfonamide]: the MIC values entry in assay [1] is given as “B+”. The Ki at PknB (setting [2]) fell in the range of 10 to 50 nM.
Taken in the same sequence, the figures for `C#Cc1cnc(-c2ccc(S(=O)(=O)NC)s2)nc1Nc1cc(C2CC2)n[nH]1` [Compound 113, 5-(4-(3-cyclopropyl-1H-pyrazol-5-ylamino)-5-ethynylpyrimidin-2-yl)-N-methylthiophene-2-sulfonamide] were “B+” and 1 to 10 nM.
Consider `C#Cc1cnc(-c2ccc(S(N)(=O)=O)s2)nc1Nc1cc(C2CC2)n[nH]1` [Compound 114, 5-(4-(3-Cyclopropyl-1H-pyrazol-5-ylamino)-5-ethynylpyrimidin-2-yl)thiophene-2-sulfonamide], for which, in assay [1], the MIC values entry is recorded as “A+, A”. In addition, the inhibition constant Ki on PknB (setting [2]) lay in the range of 1 to 10 nM.
`C#Cc1cnc(-c2ccc(S(=O)(=O)NC(C)(C)C)s2)nc1Nc1cc(C2CC2)n[nH]1` [Compound 115, N-tert-butyl-5-(4-(5-cyclopropyl-1H-pyrazol-3-ylamino)-5-ethynylpyrimidin-2-yl)thiophene-2-sulfonamide]: in assay [1], the MIC values entry is listed as “B++, B+”. For the same molecule, on PknB (setting [2]), the inhibition constant Ki lay within 10 to 50 nM.
Regarding `CNS(=O)(=O)c1ccc(-c2ncc(Cl)c(Nc3cc(C4CC4)n[nH]3)n2)cc1` [Compound 117, 4-[5-chloro-4-[(5-cyclopropyl-2H-pyrazol-3-yl)amino]-pyrimidin-2-yl]-N-methyl-benzenesulfonamide], the MIC values result in assay [1] is “A, C, C”. Moreover, on PknB (setting [2]), the “Ki Values” was “A*, A”.
Regarding `OCc1cnc(-c2ccccc2)nc1Nc1cc(C2CC2)n[nH]1` [Compound 123, (4-(5-cyclopropyl-1H-pyrazol-3-ylamino)-2-phenylpyrimidin-5-yl)methanol], the MIC values result in assay [1] was “B, C”. Also, the inhibitory constant (Ki) at PknB (setting [2]) is 100 to 500 nM.
For `NS(=O)(=O)c1cccc(-c2ncc(CO)c(Nc3cc(C4CC4)n[nH]3)n2)c1` [Compound 124, 3-(4-(5-cyclopropyl-1H-pyrazol-3-ylamino)-5-(hydroxymethyl)pyrimidin-2-yl)benzenesulfonamide], in assay [1], the MIC values entry is “A, B++”. Further, the inhibition constant (Ki) at PknB (setting [2]) was 50 to 100 nM.
On to `Oc1ccc(-c2ncc(Cl)c(Nc3cc(C4CC4)[nH]n3)n2)cc1` [Compound 126, 4-[5-chloro-4-[(5-cyclopropyl-1H-pyrazol-3-yl)amino]-pyrimidin-2-yl]phenol], for which, in assay [1], the MIC values entry is “B++, B+”. The Ki at PknB (setting [2]) was in the range of 10 to 50 nM.
Consider `C#Cc1cnc(-c2ccc(Cl)c(C(N)=O)c2)nc1Nc1cc(C2CC2)n[nH]1` [Compound 128, 2-chloro-5-(4-(3-cyclopropyl-1H-pyrazol-5-ylamino)-5-ethynylpyrimidin-2-yl)benzamide], for which the MIC values entry in assay [1] was “B+, C”. For the same molecule, the inhibitory constant (Ki) at PknB (setting [2]) was in the range of 10 to 50 nM.
`CN(CCO)S(=O)(=O)c1ccc(-c2ncc(Cl)c(Nc3cc(C4CC4)[nH]n3)n2)s1` [Compound 129, 5-(5-Chloro-4-(5-cyclopropyl-1H-pyrazol-3-ylamino)pyrimidin-2-yl)-N-(2-hydroxyethyl)-N-methylthiophene-2-sulfonamide]: the MIC values result in assay [1] is “B++”. On PknB (setting [2]), the inhibitory constant (Ki) was 1 to 10 nM.
Take `CC(=O)NCc1ccc(-c2ncc(Cl)c(Nc3cc(C4CC4)n[nH]3)n2)s1` [Compound 136, N-((5-(5-chloro-4-(3-cyclopropyl-1H-pyrazol-5-ylamino)pyrimidin-2-yl)thiophen-2-yl)methyl)acetamide]: in assay [1], the MIC values result was “B+”. The inhibition constant Ki on PknB (setting [2]) was 10 to 50 nM.
Take `NCCNS(=O)(=O)c1cccc(-c2ncc(Cl)c(Nc3cc(C4CC4)[nH]n3)n2)c1` [Compound 138, N-(2-aminoethyl)-3-[5-chloro-4-[(5-cyclopropyl-1H-pyrazol-3-yl)amino]-pyrimidin-2-yl]-benzenesulfonamide]: the MIC values result in assay [1] is “B, C”. Besides, the inhibition constant Ki on PknB (setting [2]) was 10 to 50 nM.
Regarding `O=S(=O)(NC1CC1)c1ccc(-c2ncc(Cl)c(Nc3cc(C4CC4)[nH]n3)n2)s1` [Compound 139, 5-[5-chloro-4-[(5-cyclopropyl-1H-pyrazol-3-yl)amino]-pyrimidin-2-yl]-N-cyclopropyl-thiophene-2-sulfonamide], in assay [1], the MIC values entry was “B+, C”. The inhibition constant (Ki) at PknB (setting [2]) lay in the range of 10 to 50 nM.
Take `NCc1ccc(-c2ncc(Cl)c(Nc3cc(C4CC4)n[nH]3)n2)s1` [Compound 141, 2-(5-(aminomethyl)thiophen-2-yl)-5-chloro-N-(3-cyclopropyl-1H-pyrazol-5-yl)pyrimidin-4-amine hydrochloride]: the MIC values entry in assay [1] is recorded as “B, C, C”. Besides, at PknB, the “Ki Values” is “A, A, B**”.
On to `Cc1cnc(-c2ccc([C@@H](C)O)s2)nc1Nc1cc(C2CC2)[nH]n1` [Compound 145, (R)-1-(5-(4-(5-cyclopropyl-1H-pyrazol-3-ylamino)-5-methylpyrimidin-2-yl)thiophen-2-yl)ethanol], for which, in assay [1], the MIC values entry is reported as “B++, B+”. In addition, at PknB (setting [2]), the Ki is 50 to 100 nM.
Take `Cc1cnc(-c2ccc([C@H](C)O)s2)nc1Nc1cc(C2CC2)[nH]n1` [Compound 146, (S)-1-(5-(4-(5-cyclopropyl-1H-pyrazol-3-ylamino)-5-methylpyrimidin-2-yl)thiophen-2-yl)ethanol]: the MIC values result in assay [1] was “B++”. In addition, on PknB (setting [2]), the “Ki Values” is given as “A*, A**”.
On to `O=S(=O)(NC1CCOCC1)c1ccc(-c2ncc(Cl)c(Nc3cc(C4CC4)[nH]n3)n2)s1` [Compound 148, 5-[5-chloro-4-[(5-cyclopropyl-1H-pyrazol-3-yl)amino]-pyrimidin-2-yl]-N-tetrahydropyran-4-yl-thiophene-2-sulfonamide], for which the MIC values result in assay [1] was “B, C”. In addition, the “Ki Values” at PknB (setting [2]) is “A, B**”.
As for `Cc1cnc(-c2ccc(S(=O)(=O)NC(C)(C)C)s2)nc1Nc1cc(C2CC2)n(C)n1` [Compound 149, 5-[4-[(5-cyclopropyl-1-methyl-pyrazol-3-yl)amino]-5-methyl-pyrimidin-2-yl]-N-tert-butyl-thiophene-2-sulfonamide], the MIC values result in assay [1] is given as “B+”. The inhibition constant (Ki) at PknB (setting [2]) is above 4000 nM.
The like results for `NS(=O)(=O)c1ccc(-c2ncc(C(F)(F)F)c(Nc3cc(C4CC4)[nH]n3)n2)s1` [Compound 159, 5-(4-(5-cyclopropyl-1H-pyrazol-3-ylamino)-5-(trifluoromethyl)pyrimidin-2-yl)thiophene-2-sulfonamide] were, in that order, “B+” and 100 to 500 nM.
In the case of `C#Cc1cnc(-c2ccc(CN)s2)nc1Nc1cc(C2CC2)[nH]n1` [Compound 167, 2-(5-(aminomethyl)thiophen-2-yl)-N-(5-cyclopropyl-1H-pyrazol-3-yl)-5-ethynylpyrimidin-4-amine hydrochloride], in assay [1], the MIC values result was “B++”. For the same molecule, the “Ki Values” on PknB was “A, A, A, B**”.
In the case of `CC(C)(C)NS(=O)(=O)c1ccc(-c2ncc(Br)c(Nc3cc(C4CC4)[nH]n3)n2)s1` [Compound 170, 5-[5-bromo-4-[(5-cyclopropyl-1H-pyrazol-3-yl)amino]-pyrimidin-2-yl]-N-tert-butyl-thiophene-2-sulfonamide], the MIC values result in assay [1] is on record as “B+”. In addition, the “Ki Values” on PknB (setting [2]) is on record as “A*, A”.
As to `NS(=O)(=O)c1ccc(-c2ncc(CO)c(Nc3cc(C4CC4)n[nH]3)n2)s1` [Compound 171, 5-(4-(5-cyclopropyl-1H-pyrazol-3-ylamino)-5-(hydroxymethyl)pyrimidin-2-yl)thiophene-2-sulfonamide], the MIC values result in assay [1] was “B++”. In addition, the “Ki Values” on PknB (setting [2]) is reported as “A, B**, B**”.
For `C#Cc1cnc(N2CC[C@@H](NC(=O)OC(C)(C)C)C2)nc1Nc1cc(C2CC2)n[nH]1` [Compound 173, tert-butyl [[1-[4-[(5-cyclopropyl-2H-pyrazol-3-yl)amino]-5-ethynyl-pyrimidin-2-yl]pyrrolidin-3-yl]amino]formate], in assay [1], the MIC values entry was “B+”. The “Ki Values” on PknB (setting [2]) is reported as “B, C”.
